Measured values as given in US9029589B2, “Phenyl alkyl carbamate derivative compound and pharmaceutical composition containing the same” (Bio-Pharm Solutions Co., Ltd., priority 2011, dated 2015).

Tests used:
Assay type in all cases: in vivo
Settings in all cases: intraperitoneal, at time of maximum effect, 50% of muscle relaxation activity vs vehicle only (100%)
[1] = system: male mice (ICR); assay: Muscle relaxation activity by grip strength (forelimbs)
Description: (§1) For testing, male mice (ICR) were purchased from ORIENT BIO INC. (Korea), divided into several groups with 6 mice in each group, and were adapted for 4-5 days. The mice having the weight ranging from 19 g to 26 g were employed for the test. The pharmacological effect of the test compounds on muscle relaxation was evaluated by Rotarod test, grip strength test, and muscular force (wire hang) test. All mice were adapted to the test environment at one hour before starting the tests. The pharmacological effects of all the test compounds were evaluated by administration through peritoneal cavity of the mice (10 ul/g, bw).
A grip strength test using the test animals' forelimbs was performed using an instrument equipped with triangle ring and designed so as to easily grip with the forelimbs of experimental animals, manufactured from Ugo Basile Inc. (Ugo Basile, Model 47106, Italy). The test was conducted before and after administration of the compounds to evaluate the effects thereof. […] The mouse was made to grip the rod with its forelimbs, and its tail was pulled, where the force at which the mouse detached from the rod was recorded. The instrument indicated the force in grams. All of the mice were given 3 opportunities for test, and the 3 highest values among the test opportunities were selected and the mean value was used as the test result. This experimentation was conducted according to the method described in the reference, ‘Nevins et al. (1993) Quantitative grip strength assessment as a means of evaluating muscle relaxation in mice. Psychopharmacol. 110: 92-96’.
(§2) The results of muscle relaxation activity of the phenyl alkyl carbamate derivative compounds measured in above Experimental Examples 1 to 3 are shown in following Table 3.

[2] = system: male mice (ICR); assay: Muscle relaxation activity by wire hang
Description: as §1
This experimentation was conducted using a metal wire of 30 cm in length, which was suspended between two pillars at a height of about 40 cm from the bottom covered with a soft pad. […] Each mouse was made to grip the wire using two forelimbs, and the elapse time before the mouse fell off from the wire to the pad on the bottom was recorded in seconds. Each mouse was given 5 opportunities for this test at an interval of 2 minutes period. The highest 3 records among the test opportunities were selected and the mean value was used as the test result. This experimentation was conducted according to the method described in the reference, ‘Jacqueline N. Crawley (1999) Behavioral phenotyping of transgenic and knockout mice: experimental design and evaluation of general health, sensory functions, motor abilities, and specific behavioral tests. Brain Res. 835: 18-26’.
as §2

[3] = system: male mice (ICR); assay: Muscle relaxation activity by residence time on a rotarod rotating at a fixed speed (15 r.p.m.)
Description: as §1
All the mice to be tested were preliminarily trained for 5 minutes on a rod rotating at the rate of 15 revolutions per a minute. The mice that could not remain on the rod without falling off therefrom for a minimum of 2 minutes were excluded from this testing. After the training, all the mice were allowed to rest for 45-60 minutes. Before the administration of the test compounds, the mice were subjected to a further training for one minute on the rod rotating under the same condition, where the mice falling off from the rod were excluded from this experimentation. […] In case a mouse stays on the rod until the test is finished, the time was recorded as 10 minutes. As test time for evaluation, a maximum of 10 minutes was applied. This experimentation was conducted according to the method described in the reference, ‘Yasuda et al. (2005) Antipyretic, analgesic and muscle relaxant activities of Pueraria isoflavonoids and their metabolites from Pueraria lobata Ohwi—a traditional Chinese drug. Biol. Pharm. Bull. 28: 1224-1228’.
as §2

| Structure (SMILES) | MR test (ED50) II = Grip strength [1] | MR test (ED50) III = Wire hang [2] | MR test (ED50) I = Fixed 15 r.p.m. Rotarod [3] |
| --- | --- | --- | --- |
| C[C@H](OC(N)=O)[C@@H](OC(N)=O)c1ccccc1Cl [Example 247, 1-(2-chlorophenyl)-(S)-1-carbamoyloxypropyl-(S)-2-carbamate] | 264.3 mg/kg, bw |  |  |
| COCO[C@H](c1ccccc1I)[C@@H](C)OC(N)=O [Example 91, 1-(2-iodophenyl)-(R)-1-methoxymethoxypropyl-(R)-2-carbamate] |  | 24.4 mg/kg, bw | 30.1 mg/kg, bw |
| CO[C@@H](c1ccccc1I)[C@H](C)OC(N)=O [Example 143, 1-(2-iodophenyl)-(S)-1-methoxypropyl-(S)-2-carbamate] | 61.0 mg/kg, bw | 33.5 mg/kg, bw | 13.0 mg/kg, bw |
| CO[C@@H](c1ccccc1Cl)[C@H](C)OC(N)=O [Example 124, 1-(2-chlorophenyl)-(S)-1-methoxypropyl-(S)-2-carbamate] | 66.4 mg/kg, bw | 34.8 mg/kg, bw | 35.9 mg/kg, bw |
| C[C@@H](OC(N)=O)[C@H](OC(N)=O)c1ccccc1Cl [Example 250, 1-(2-chlorophenyl)-(R)-2-carbamoyloxypropyl-(R)-1-carbamate] | 225.6 mg/kg, bw |  |  |
| COCO[C@@H](c1ccccc1Cl)[C@H](C)OC(N)=O [Example 1, 1-(2-chlorophenyl)-(S)-1-methoxymethoxypropyl-(S)-2-carbamate] | 115.2 mg/kg, bw | 37.0 mg/kg, bw | 55.0 mg/kg, bw |
| CO[C@@H](c1ccccc1F)[C@H](C)OC(N)=O [Example 135, 1-(2-fluorophenyl)-(S)-1-methoxypropyl-(S)-2-carbamate] | 145.6 mg/kg, bw | 26.2 mg/kg, bw | 60.0 mg/kg, bw |
